The text below walks through data of patent publication US20260274833A1 (NiKang Therapeutics, Inc., priority 2022, published 2026).

A word on the IC50: it is the point on the concentration scale where inhibition reaches its midpoint.

The structures appear in SMILES notation. A value given as a limit tells only on which side of the number the result lay.

The first assay has as its target T1, CDK2 (Homo sapiens, UniProt P24941).
T1 construct: endogenous in cells; host or cells: OVCAR3 cells
In words: Phospho-RB measurement in OVCAR3 cells (HTRF phospho-RB cellular kit). Type of assay: cell-based. The note with it: inhibition of RB phosphorylation at S807/811 (HTRF), 24 h compound treatment. The procedure, abridged: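 IC50 came from a four-parameter logistic fit of the DMSO-normalized TR-FRET ratio (665/620 nm). That ratio reflects RB phosphorylation at S807/811, read with an HTRF antibody pair 4 h after adding lysate at room temperature.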
`CC(C)(C)c1nc(-c2cccc(NS(=O)(=O)N3CCn4cnnc4C3)c2F)c(-c2ccnc(NC3CCN(S(C)(=O)=O)CC3)n2)s1` [Example 90, N-(3-(2-(tert-butyl)-5-(2-((1-(methylsulfonyl)-piperidin-4-yl)amino)-pyrimidin-4-yl)thiazol-4-yl)~2~fluoro-phenyl)-5,6-dihydro-[1,2,4] triazolo-[4,3-a]pyrazine-7(8H)-sulfonamide]: the IC50 was greater than 10 µM.

The same assay, now with this note: inhibition of RB phosphorylation at S807/811 (HTRF, TR-FRET ratio 665/620), 24 h compound treatment, 0.3 to 10,000 nM.
On to `CC(C)(C)c1nc(-c2cccc(NS(=O)(=O)N3Cc4ccc(C#N)cc4C3)c2F)c(-c2ccnc(NC3CCN(S(C)(=O)=O)CC3)n2)s1` [Example 97, N-(3-(2-(tert-butyl)-5-(2-((1-(methylsulfonyl)piperidin-4-yl)amino)-pyrimidin-4-yl)thiazol-4-yl)-2-fluorophenyl)-5-cyanoisoindoline-2-sulfonamide], for which the IC50 is 0.285 µM.
Still for that read-out and setting: to `COc1cccc2c1CN(S(=O)(=O)Nc1cccc(-c3nc(C4(C)CCOCC4)sc3-c3ccnc(NC4CC5(C4)CS(=O)(=O)C5)n3)c1F)C2` [Example 2, N-(3-(5-(2-((2,2-dioxido-2-thiaspiro-[3.3]-heptan-6-yl)amino)pyrimidin-4-yl)-2-(4-methyltetrahydro-2H-pyran-4-yl)-thiazol-4-yl)-2-fluorophenyl)-4-methoxyisoindoline-2-sulfonamide] belongs 0.0755 µM.
As to `CC(C)(c1nc(-c2cccc(NS(=O)(=O)N3CCc4ccc(Cl)cc43)c2F)c(-c2ccnc(N[C@H]3CC[C@H](S(C)(=O)=O)CC3)n2)s1)C(F)(F)F` [Example 289, 6-chloro-N-(2-fluoro-3-(5-(2-(((1r,4r)-4-(methylsulfonyl)cyclohexyl)amino)pyrimidin-4-yl)-2-(1,1,1-trifluoro-2-methyl-propan-2-yl)thiazol-4-yl)phenyl)-indoline-1-sulfonamide], the IC50 was determined as 0.11 µM.
Same read-out and setting: to `CN1CC(N(C)S(=O)(=O)N2CCC(Nc3nccc(-c4sc(C(C)(C)C)nc4-c4cccc(NS(=O)(=O)N5Cc6ccccc6C5)c4F)n3)CC2)C1` [Example 179, N-(3-(2-(tert-butyl)-5-(2-((1-(N-methyl-N-(1-methylazetidin-3-yl)sulfamoyl)-piperidin-4-yl)amino)pyrimidin-4-yl)-thiazol-4-yl)-2-fluorophenyl)-isoindoline-2-sulfonamide] belongs 0.241 µM; to `CN(C)Cc1ccc(Nc2nccc(-c3sc(C(C)(C)C)nc3-c3cccc(NS(=O)(=O)N4CCc5ccc(C#N)cc54)c3F)n2)cc1` [Example 248, N-(3-(2-(tert-butyl)~5-(2-((4-((dimethylamino)-methyl)phenyl)-amino)pyrimidin-4-yl)thiazol-4-yl)-2-fluorophenyl)-6-cyanoindoline-1-sulfonamide], 0.405 µM; to `CN(C)C(=O)c1ccc2c(c1)CN(S(=O)(=O)Nc1cccc(-c3nc(C(C)(C)C)sc3-c3ccnc(NC4CCN(S(C)(=O)=O)CC4)n3)c1F)C2` [Example 161, 2-(N-(3-(2-(tert-butyl)-5-(2-((1-(methyl-sulfonyl)piperidin-4-yl)amino)pyrimidin-4~yl)thiazol~4-yl)-2-fluorophenyl)-sulfamoyl)-N,N-dimethyl-isoindoline-5-carboxamide], 1.8 µM.
On the same count and under the same terms, next, `O=S1(=O)CC2(CC(Nc3nccc(-c4sc(C56CC(C5)C6)nc4-c4cccc(NS(=O)(=O)N5C6CCC5CC6)c4F)n3)C2)C1` [Example 265, N-(3-(2-(bicyclo[1.1. 1]pentan-1-yl)-5-(2-((2,2-dioxido-2-thiaspiro[3.3]heptan-6-yl)amino)-pyrimidin-4-yl)thiazol-4-yl)-2-fluorophenyl)-7-azabicyclo[2.2.1]-heptane-7-sulfonamide]: 5.27 µM; `CS(=O)(=O)[C@H]1CC[C@H](Nc2nccc(-c3sc(C45CC(F)(C4)C5)nc3-c3cccc(NS(=O)(=O)N4CCc5ccc(C(F)(F)F)cc54)c3F)n2)CC1` [Example 276, N-(2-fluoro-3-(2-(3-fluorobicyclo-[1.1.1]pentan-1-yl)-5-(2-(((1s,4s)-4-(methylsulfonyl)-cyclohexyl)amino)-pyrimidin-4-yl)thiazol-4-yl)phenyl)-6-(trifluoromethyl) indoline-1-sulfonamide]: 0.192 µM.
On the same count and under the same terms, next, `CNS(=O)(=O)Nc1cccc(-c2nc(C(C)(C)C)sc2-c2ccnc(NC3CCN(S(=O)(=O)N4CCNCC4)CC3)n2)c1F` [Example 146, N-(3-(2-(tert-butyl)-5-(2-((1-(piperazin-1-ylsulfonyl)piperidin-4-yl)amino)-pyrimidin-4-yl)thiazol-4-yl)-2-fluoro-phenyl)-methylamine-sulfonamide]: 3.01 µM.
Take `CC(C)(C)c1nc(-c2cccc(NS(=O)(=O)N3Cc4ccncc4C3)c2F)c(-c2ccnc(N[C@H]3[C@@H]4CS(=O)(=O)C[C@@H]43)n2)s1` [Example 222, N-(3-(2-(tert-butyl)-5-(2-(((1R,5S,6r)-3,3-dioxido-3-thiabicyclo[3.1.0]hexan-6-yl)amino)pyrimidin-4-yl)thiazol-4-yl)-2-fluorophenyl)-1,3-dihydro-2H-pyrrolo[3,4-c]-pyridine-2-sulfonamide]: the IC50 came to 0.152 µM.
Still for that read-out and setting: to `CC(C)(C)c1nc(-c2cccc(NS(=O)(=O)N3CCC(Oc4ccccc4)CC3)c2F)c(-c2ccnc(NC3CCN(S(C)(=O)=O)CC3)n2)s1` [Example 65, N-(3-(2-(tert-butyl)-5-(2-((1-(methylsulfonyl)-piperidin-4-yl)amino)-pyrimidin-4-yl)thiazol-4-yl)-2-fluoro-phenyl)-4-phenoxypiperidine-1-sulfonamide] belongs 0.588 µM; to `CC1(S(C)(=O)=O)CCC(Nc2nccc(-c3sc(C45CC(C(F)(F)F)(C4)C5)nc3-c3cccc(NS(=O)(=O)N4CCc5ccccc54)c3F)n2)CC1` (stereo not drawn) [Example 285, N-(2-fluoro-3-(5-(2-((4-methyl-4-(methylsulfonyl)cyclohexyl)amino)pyrimidin-4-yl)-2-(3-(trifluoromethyl)bicyclo-[1.1.1]pentan-1-yl)thiazol-4-yl)phenyl)-indoline-1-sulfonamide], 3.06 µM.
With `COc1cccc2c1CN(S(=O)(=O)Nc1cccc(-c3nc(C(C)(C)C)sc3-c3ccnc(NC4CC5(C4)CS(=O)(=O)C5)n3)c1F)C2` [Example 202, N-(3-(2-(tert-butyl)-S-(2-((2,2-dioxido-2-thiaspiro[3.3]heptan-6-yl)amino)-pyrimidin-4-yl)thiazol-4-yl)-2-fluoro-phenyl)-4-methoxyisoindoline-2-sulfonamide], the IC50 amounted to 0.0862 µM.
Same read-out and setting: next, `O=S1(=O)CC2(CC(Nc3nccc(-c4sc(C5(C(F)(F)F)CC5)nc4-c4cccc(NS(=O)(=O)N5CCc6ccc(Cl)cc65)c4F)n3)C2)C1` [Example 287, 6-chloro-N-(3-(5-(2-((2,2-dioxido-2-thiaspiro[3.3]heptan-6-yl)amino)-pyrimidin-4-yl)-2-(1-(trifluoromethyl)-cyclopropyl)thiazol-4-yl)-2-fluoro-phenyl)indoline-1-sulfonamide]: 0.347 µM.
As to `CN(C)Cc1ccc2c(c1)N(S(=O)(=O)Nc1cccc(-c3nc(C(C)(C)C)sc3-c3ccnc(NC4CCN(S(C)(=O)=O)CC4)n3)c1F)CC2` [Example 142, N-(3-(2-(tert-butyl)-5-(2-((1-(methylsulfonyl)-piperidin-4-yl)amino)-pyrimidin-4-yl)thiazol-4-yl)-2-fluoro-phenyl)-6-((dimethylamino)-methyl)-indoline-1-sulfonamide], the IC50 came to 0.341 µM.
The same measure, in the same setting: to `CC(C)(C)c1nc(-c2cccc(NS(=O)(=O)N3CCN(c4ccccc4)CC3)c2F)c(-c2ccnc(NC3CCN(S(C)(=O)=O)CC3)n2)s1` [Example 64, N-(3-(2-(tert-butyl)-5-(2-((1-(methylsulfonyl)-piperidin-4-yl)amino)-pyrimidin-4-yl)thiazol-4-yl)-2-fluoro-phenyl)-4-phenylpiperazine-1-sulfonamide] belongs 0.735 µM.
Same read-out and setting: next, `CNCCOc1cccc2c1CCN2S(=O)(=O)Nc1cccc(-c2nc(C(C)(C)C)sc2-c2ccnc(NC3CCN(S(C)(=O)=O)CC3)n2)c1F` [Example 181, N-(3-(2-(tert-butyl)-5-(2-((1-(methylsulfonyl)-piperidin-4-yl)amino)-pyrimidin-4-yl)thiazol-4-yl)-2-fluoro-phenyl)-4-(2-(methylamino)-ethoxy)-indoline-1-sulfonamide]: 1.89 µM; `CN1CC2CCC(C1)N2c1nc(-c2cccc(NS(=O)(=O)N3CCc4ccc(C#N)cc43)c2F)c(-c2ccnc(NC3CC4(C3)CS(=O)(=O)C4)n2)s1` [Example 16, 6-cyano-N-(3-(5-(2-((2,2-dioxido-2-thiaspiro[3.3]heptan-6-yl)amino)-pyrimidin-4-yl)-2-(3-methyl-3,8-diazabicyclo[3.2.1]octan-8-yl)thiazol-4-yl)-2-fluorophenyl) indoline-1-sulfonamide]: 0.0624 µM.
On the same count and under the same terms, to `CS(=O)(=O)[C@H]1CC[C@H](Nc2nccc(-c3sc(N4C5CCC4CC(F)(F)C5)nc3-c3cccc(NS(=O)(=O)N4CCc5ccc(C(F)(F)F)cc54)c3F)n2)CC1` [Example 298, N-(3-(2-(3,3-difluoro-8-azabicyclo-[3.2.1]octan-8-yl)-5-(2-(((1r,4r)-4-(methylsulfonyl)cyclohexyl)amino)-pyrimidin-4-yl)thiazol-4-yl)-2-fluoro-phenyl)-6-(trifluoromethyl)-indoline-1-sulfonamide] belongs 0.13 µM; to `CC(C)(C)c1nc(-c2cccc(NS(=O)(=O)N3CCc4ccc(C(C)(C)O)cc43)c2F)c(-c2ccnc(NC3CC4(C3)CS(=O)(=O)C4)n2)s1` [Example 257, N-(3-(2-(tert-butyl)-5-(2-((2,2-dioxido-2-thiaspiro[3.3]heptan-6-yl)amino)-pyrimidin-4-yl)thiazol-4-yl)-2-fluoro-phenyl)-6-(2-hydroxypropan-2-yl)indoline-1-sulfonamide], 2.96 µM.
